# In ChEMBL document CHEMBL1144428 (J Med Chem, 2005):
# Biological target: T1, Prostaglandin G/H synthase 1 (Mus musculus, UniProt P22437)
# T1 sequence (P22437 whole entry): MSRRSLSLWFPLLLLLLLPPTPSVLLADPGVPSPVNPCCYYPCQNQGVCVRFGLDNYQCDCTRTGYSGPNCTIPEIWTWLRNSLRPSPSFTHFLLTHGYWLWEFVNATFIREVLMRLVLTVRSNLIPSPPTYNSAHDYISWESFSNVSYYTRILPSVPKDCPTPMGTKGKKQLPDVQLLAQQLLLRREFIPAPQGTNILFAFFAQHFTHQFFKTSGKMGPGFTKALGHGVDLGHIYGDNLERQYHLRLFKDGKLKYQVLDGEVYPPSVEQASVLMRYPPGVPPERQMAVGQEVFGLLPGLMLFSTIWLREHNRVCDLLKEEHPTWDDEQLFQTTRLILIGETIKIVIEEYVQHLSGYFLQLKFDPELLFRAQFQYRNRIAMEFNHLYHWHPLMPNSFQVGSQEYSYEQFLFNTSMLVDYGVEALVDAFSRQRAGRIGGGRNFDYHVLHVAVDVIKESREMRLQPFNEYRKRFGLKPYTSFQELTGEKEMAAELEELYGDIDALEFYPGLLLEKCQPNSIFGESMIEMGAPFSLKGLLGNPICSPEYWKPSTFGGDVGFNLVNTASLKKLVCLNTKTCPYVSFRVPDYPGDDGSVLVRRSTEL
# Description: In vitro inhibitory activity against Prostaglandin G/H synthase 1 in murine J774 cells
row,Compound,IC50 [µM]
1,CCOC(=O)Cc1cc(-c2ccc(S(C)(=O)=O)cc2)n(-c2ccccc2)c1C,> 100
2,Cc1ccc(-n2c(-c3ccc(S(C)(=O)=O)cc3)cc(CC(=O)O)c2C)cc1,> 100
3,CCOC(=O)C(=O)c1cc(-c2ccc(S(C)(=O)=O)cc2)n(-c2ccc(C(F)(F)F)cc2)c1C,> 100
4,Cc1c(CC(=O)O)cc(-c2ccc(S(C)(=O)=O)cc2)n1-c1ccc(C(F)(F)F)cc1,> 100
5,CCOC(=O)Cc1cc(-c2ccc(S(C)(=O)=O)cc2)n(-c2ccc(C)cc2)c1C,> 100
6,Cc1c(CC(=O)O)cc(-c2ccc(S(C)(=O)=O)cc2)n1-c1ccccc1,> 100
7,CCOC(=O)C(=O)c1cc(-c2ccc(S(C)(=O)=O)cc2)n(-c2ccccc2)c1C,> 100
8,CCOC(=O)C(=O)c1cc(-c2ccc(S(C)(=O)=O)cc2)n(-c2ccc(C)cc2)c1C,> 100
9,CCOC(=O)Cc1cc(-c2ccc(S(C)(=O)=O)cc2)n(-c2ccc(C(F)(F)F)cc2)c1C,> 100
